The source of these data is publication PMC11921695 (BMC Cancer, 2025).

The structures appear in SMILES notation. Where “and” joins values, the source holds several entries; their conditions need not be identical. Equal entries are not always repeated. Where two headings read alike, the source gives them in different places.

The format of data set [1] is in vivo. The conditions noted are these: trough plasma, individual patients. As to the method: Peripheral blood w ill be sent to Lab21 for anti-retroviral drug levels on Cycle 1 D ay 1 Pre-
treatment, Cycle 1 Day 15 and Cycle 4 D ay 22/Cycle 5 Day 1. […]
• 5mls of venous blood should be collected into a K2- ED TA BD vacutainer
• Samples should be inverted several times to ensure adequate mix ing. […]
• Samples should be stored at - 200C. […]
Ant i-retroviral drug lev els
• Samples to be collected Cycle 1 Day 1 Pre- treatment and Cycle 1 Day 15 and Cycle 4 Day […]
• 2x 1000 µl of plasma should be aliquoted to 1.5 ml plastic screw top tubes.
• Samples should be stored at - 200C (or below) for 24 hours befor e sending. […]
Therapeutic drug monitoring of the cART therapies was undertaken by Lab 21 Ltd (Cambridge, UK). Blood plasma was prepared from 5 ml of venous blood collected in K2-EDTA BD vacutainer tubes from kits provided by Covance. Samples were centrifuged at 2000 g for 20 minutes at room temperature, frozen at sites, packed in dry ice and sent to Lab 21 Ltd (Cambridge, UK) where they were stored at -20°C prior to analysis.

Data set [2] concerns non-small cell lung cancer. Further details: method as in SCART protocol 7.3.1. The conditions noted are these: selumetinib 75mg bd + docetaxol 75mg/m2 iv day 1 every 21 days (combination arm) or chemotherapy alone arm; ref SCART protocol 7.3.1; cited from earlier work.
The next data set deals with Kaposi's sarcoma. Further details: method as in Tulpule, et al. 2002. Conditions: 100mg/m2 q 2 weeks, second-line; ref Tulpule, et al. 2002; cited from earlier work.
For the next data set, the system named is CYPs 3A, 1A and 2C9. Further details: method as in Investigator Brochure. Conditions: protocol background; ref Investigator Brochure; cited from earlier work.
Data set [3] is classed as in vivo. Conditions: trough plasma, Cycle 5 Day 15, individual patient.
The mark [4] stands for this setting: Cycle 1 Day 1 (pre-selumetinib), selumetinib starting dose 50 mg bd.
The mark [5] stands for this setting: Cycle 1 Day 1 (pre-selumetinib), selumetinib starting dose 75 mg bd.
Where [6] appears, read: Cycle 1 Day 15, selumetinib starting dose 50 mg bd.
[7] abbreviates: Cycle 1 Day 15, selumetinib starting dose 75 mg bd.
Where [8] appears, read: Cycle 5 Day 1, selumetinib starting dose 50 mg bd.
[9] abbreviates: Cycle 5 Day 1, selumetinib starting dose 75 mg bd.

For `O=C1Nc2ccc(Cl)cc2[C@@](C#CC2CC2)(C(F)(F)F)O1` [Efavirenz], the “Antiretroviral drug Concentration” value in data set [1] (setting [4]) was 4545 ng/mL; in data set [1] (setting [5]) it was 3378 ng/mL; in data set [1] (setting [6]) it was 4180 ng/mL; in data set [1] (setting [7]) it was 3139 ng/mL; in data set [1] (setting [8]), 6257 ng/mL.
In the case of `Nc1nc(NC2CC2)c2ncn([C@H]3C=C[C@@H](CO)C3)c2n1` [Abacavir], the “Antiretroviral drug Concentration” value in data set [1] (setting [5]) turned out to be 1060 ng/mL; in data set [1] (setting [7]), 246 ng/mL.
`CC(=O)O[C@@]12CO[C@@H]1C[C@H](O)[C@@]1(C)C(=O)[C@H](O)C3=C(C)[C@@H](OC(=O)[C@H](O)[C@@H](NC(=O)OC(C)(C)C)c4ccccc4)C[C@@](O)([C@@H](OC(=O)c4ccccc4)[C@H]21)C3(C)C` [docetaxol]: in data set [2], the “febrile neutropenia, patients” value is on record as 0/42.
With `CC(=O)O[C@H]1C(=O)[C@@]2(C)[C@H]([C@H](OC(=O)c3ccccc3)[C@]3(O)C[C@H](OC(=O)[C@H](O)[C@@H](NC(=O)c4ccccc4)c4ccccc4)C(C)=C1C3(C)C)[C@]1(OC(C)=O)CO[C@@H]1C[C@@H]2O` [paclitaxel], in the data set with Kaposi's sarcoma, the “median PFS” value is reported as 39 weeks and the response rate is recorded as 56%.
`CC(C)c1nc(CN(C)C(=O)N[C@H](C(=O)N[C@@H](Cc2ccccc2)C[C@H](O)[C@H](Cc2ccccc2)NC(=O)OCc2cncs2)C(C)C)cs1` [Ritonavir]: the “Antiretroviral drug Concentration” value in data set [1] (setting [4]) was 516 ng/mL and 94 ng/mL; in data set [1] (setting [5]), 364 ng/mL and 342 ng/mL; in data set [1] (setting [6]), 462 ng/mL and 575 ng/mL and 246 ng/mL; in data set [1] (setting [7]), 1585 ng/mL and 564 ng/mL; in data set [1] (setting [8]) it was 328 ng/mL and 566 ng/mL; in data set [1] (setting [9]), 431 ng/mL.
As for `Cn1cnc2c(F)c(Nc3ccc(Br)cc3Cl)c(C(=O)NOCCO)cc21` [AZD6244], the “induction of CYPs 3A, 1A and 2C9” value in the data set on CYPs 3A, 1A and 2C9 is given as “weak”.
For `C[C@H](Cn1cnc2c(N)ncnc21)OCP(=O)(O)O` [Tenofovir], the “Antiretroviral drug Concentration” value in data set [1] (setting [4]) is 133 ng/mL and 15 ng/mL and 90 ng/mL; in data set [1] (setting [5]), 84 ng/mL and 30 ng/mL and 60 ng/mL and 130 ng/mL and 90 ng/mL; in data set [1] (setting [6]), 51 ng/mL and 234 ng/mL and 43 ng/mL; in data set [1] (setting [7]) it was 123 ng/mL and 46 ng/mL and 239 ng/mL and 40 ng/mL; in data set [1] (setting [8]), 55 ng/mL; in data set [1] (setting [9]) it was 135 ng/mL and 104 ng/mL. In addition, the entries for the “Antiretroviral drug Concentration” value in data set [3] (selumetinib starting dose 50 mg bd) and in data set [3] (selumetinib starting dose 75 mg bd) were 230 ng/mL and 143 ng/mL, respectively.
On to `Nc1ccn([C@@H]2CS[C@H](CO)O2)c(=O)n1` [Lamivudine], for which the “Antiretroviral drug Concentration” value came to 817 ng/mL in data set [1] (setting [5]) and 512 ng/mL in data set [1] (setting [7]).
As to `COC(=O)N[C@H](C(=O)N[C@@H](Cc1ccccc1)[C@@H](O)CN(Cc1ccc(-c2ccccn2)cc1)NC(=O)[C@@H](NC(=O)OC)C(C)(C)C)C(C)(C)C` [Atazanavir], the “Antiretroviral drug Concentration” value in data set [1] (setting [5]) was found to be 758 ng/mL; in data set [1] (setting [7]), 5797 ng/mL.
